Measured values as given in patent publication US7750148B2, “Intermediate compound for the production of β-lactamase-resistant cephalosporin ester compounds and salts thereof” (Zhejiang Yongning Pharmaceutical Factory, priority 2003, dated 2010).

Test system: Bacillus proteus 49085, Proteus morganii 49086
Experiment: Ex vivo antibacterial activity experiment after mouse is administered, conclusions (strains not separated)
Format: in vivo
Description: the sources of tested samples (YR-1, YR-2) and control samples (CTM, CRX, CTM+SBT 1:1 and CRX+SBT 1:1) are the same as above. Bacillus proteus 49085, Proteus morganii 49086, inoculated 10^5CFU/ML each dish. Mueller-Hinton Agar (M.H) culture medium, batch number 000707 (Shanghai Reagent Supply Research Center, China Diarrhea Disease Control). Strain: Kunming mice; source: Animal Facility of Shanghai Institute of Pharmaceutical Industry; certificate number: Hudonghezhengzi No. 107; animal numbers: 120; Sex: same number of male and female mice; Body weight: 18-21 g; fast time: 16 hours. Group 1: CTM, CRX, CTM+SBT 1:1, CRX+SBT 1:1 were given at a dosage of 500 mg/kg intravenously, collecting blood at 10 minutes, 30 minutes, 1 hour, 2 hours, 4 hours, 8 hours after administration. Group 2: […] Kunming mice were randomly divided into several groups according to body weight of empty stomach and sex. Collecting blood of three mice at different time point, anticoagulated with heparin, centrifugated and separated plasma, quantitative spotting, semi-quantitated antibacterial activity according to the size of bacterial inhibition ring.

[1] = mice, intragastric administration 1000 mg/kg

Compound | blood drug concentrations (in vivo, 1000 mg/kg) | antibacterial activities in blood 8 hours after administration [1] | half-life period (compared with the intravenous controls) [1] | half-life period (compared with the intravenous controls) (mouse, in vivo, 1000 mg/kg)
CON=C(C(=O)NC1C(=O)N2C(C(=O)OCOC(=O)C3N4C(=O)CC4S(=O)(=O)C3(C)C)=C(COC(N)=O)CSC12)c1ccco1 (stereo not drawn) [YR-2, 5-thia-1-aza-bicyclo [4,2,0] octane-2-ene-2-carboxylic acid, 7-[[(2-furane (methoxy imine)acetyl)amino]-3-[[(aminocarbonyloxy)oxy]methyl]-8-oxo-, [[3,3-dimethyl-4,4-dioxy-7-oxo-4-thia-1-aza-bicyclo[3,2,0]heptane-2-group]carbonyloxy]oxy]methyl ester] | stable and persistent | can be detected | longer half-life period | –
5-thia-1-aza-bicyclo [4,2,0] octane-2-ene-2-carboxylic acid, 7-[[(2-amino-4-thiazolyl) (methoxy imine) acetyl]amino]-3-methyl-8-oxo-, [[3,3-dimethyl-4,4-dioxy-7-oxo-4-thia-1-aza-bicyclo [3,2,0] heptane-2-group]carbonyloxy]oxy]methyl ester [YR-1] | stable and persistent | can be detected | – | longer half-life period
